The record followed here is US10577349B2 (Sanford Burnham Prebys Medical Discovery Institute, priority 2015, dated 2020).

One may read the IC50 as the concentration needed to halve the response being measured. A higher IC50 goes with weaker potency in that assay.

The target in assay [1] is EmCV Cap-independent translation. In words: In vitro translation assay, FF-EmCV-Ren construct, cap-independent (Ren luciferase). The class given is biochemical, rabbit reticulocyte lysates. The essentials:
(§1)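 In a cell-free system, lysate-driven translation of FF-IRES-Ren RNA (0.1 μg per well, 2 h, 30° C) follows 1 h compound pre-treatment at room temperature. Dual-Glo readings separate cap-dependent (FF) from IRES-mediated (Ren) output.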

A further assay has as its system A375. Kind of assay: 48 h Cytotoxicity A375. The assay is classed as cell-based. Particulars: Homo sapiens, A-375.
The target of assay [2] is HCV cap-dependent translation. Kind of assay: In vitro translation assay, FF-HCV-Ren construct, cap-dependent (FF luciferase). The class given is biochemical, rabbit reticulocyte lysates. The essentials: as §1
Assay [3] concerns the target EmCV Cap-dependent translation. Kind of assay: In vitro translation assay, FF-EmCV-Ren construct, cap-dependent (FF luciferase). The assay is classed as biochemical, rabbit reticulocyte lysates. An outline of the steps: as §1
Assay [4] deals with HCV cap-independent translation. In words: In vitro translation assay, FF-HCV-Ren construct, cap-independent (Ren luciferase). The class given is biochemical, rabbit reticulocyte lysates. The essentials: as §1

Where only a bound is given, the exact number is not on record here.

In the case of `CN(C)c1ccc(-c2c(C(=O)/C=C/c3cncc(F)c3)c(=O)[nH]c3ccc(Cl)cc23)cc1` [Compound 109, 3-[(2E)-3-(5-fluoro(3-pyridyl))prop-2-enoyl]-4-[4-(dimethylamino)phenyl]-6-chlorohydroquinolin-2-one], the 50% inhibitory concentration (IC50) (in assay [1]; in the assay with A375; in assay [2]; in assay [3]; in assay [4]) was 2 to 10 µM each time.

As to `O=C(/C=C/c1cncc(F)c1)c1c(-c2cncc(Cl)c2)c2cc(Cl)ccc2[nH]c1=O` [Compound 101, 3-[(2E)-3-(5-fluoro(3-pyridyl))prop-2-enoyl]-6-chloro-4-(5-chloro(3-pyridyl))hydroquinolin-2-one], the IC50 in assay [1] was 10 to 20 µM; in the assay on A375, 2 to 10 µM; in assay [2], 10 to 20 µM; in assay [3], 2 to 10 µM; in assay [4], 10 to 20 µM.

As for `COc1ccc(Cn2c(/C=C/C(=O)c3c(-c4ccccc4)c4cc(Cl)ccc4[nH]c3=O)nc3cc(Cl)ccc32)cc1` [Compound 54, (E)-6-chloro-3-(3-(5-chloro-1-(4-methoxybenzyl)-1H-benzo[d]imidazol-2-yl)acryloyl)-4-phenylquinolin-2(1H)-one], the IC50 (in assay [1]; with A375; in assay [2]; in assay [3]; in assay [4]) was 2 to 10 µM throughout.

As for `Cc1ccc(-c2c(C(=O)/C=C/c3nc4ccccc4[nH]3)c(=O)[nH]c3ccc(Cl)cc23)cc1` [Compound 4, 3-(3-1H-Benzoimidazol-2-yl-acryloyl)-6-chloro-4-p-tolyl-1H-quinolin-2-one], the IC50 (in assay [1]; with A375; in assay [2]; in assay [3]; in assay [4]) was 2 to 10 µM each time.

Consider `Cc1ccc(/C=C/C(=O)c2c(-c3ccccc3)c3cc(Cl)ccc3[nH]c2=O)nc1` [Compound 48, 6-Chloro-3-[3-(5-methyl-pyridin-2-yl)-acryloyl]-4-phenyl-1H-quinolin-2-one], for which the IC50 lay within 2 to 10 µM in assay [1]; 2 to 10 µM in the assay with A375; 2 to 10 µM in assay [2]; 2 to 10 µM in assay [3]; 10 to 20 µM in assay [4].

Consider `O=C(/C=C/c1ccccn1)c1c(-c2ccc(C(F)(F)F)cc2)c2cc(Cl)ccc2[nH]c1=O` [Compound 84, 3-((2E)-3-(2-pyridyl)prop-2-enoyl)-6-chloro-4-[4-(trifluoromethyl)phenyl]hydroquinolin-2-one], for which the 50% inhibitory concentration (IC50) in assay [1] is 2 to 10 µM; in the assay on A375 it was under 2 µM; in assay [2] it was 2 to 10 µM; in assay [3], 2 to 10 µM; in assay [4], 2 to 10 µM.

For the molecule `O=C(/C=C/c1nc2ccccc2[nH]1)c1c(-c2ccc(OC(F)(F)F)cc2)c2cc(Cl)ccc2[nH]c1=O` [Compound 2, 3-(3-1H-Benzoimidazol-2-yl-acryloyl)-6-chloro-4-(4-trifluoromethoxy-phenyl)-1H-quinolin-2-one], the IC50 in assay [1] was 2 to 10 µM; with A375, under 2 µM; in assay [2] it was 2 to 10 µM; in assay [3], 2 to 10 µM; in assay [4], 2 to 10 µM.

On to `N#Cc1cncc(/C=C/C(=O)c2c(-c3ccccc3)c3cc(Cl)ccc3[nH]c2=O)c1` [Compound 72, 5-[(1E)-3-(6-chloro-2-oxo-4-phenyl(3-hydroquinolyl))-3-oxoprop-1-enyl]pyridine-3-carbonitrile], for which the IC50 was 2 to 10 µM in assay [1]; under 2 µM in the assay on A375; 2 to 10 µM in assay [2]; 2 to 10 µM in assay [3]; 2 to 10 µM in assay [4].

As for `O=C(/C=C/c1ccccc1)c1c(-c2ccccc2)c2cc([N+](=O)[O-])ccc2[nH]c1=O` [Compound 16, 6-Nitro-4-phenyl-3-(3-phenyl-acryloyl)-1H-quinolin-2-one], the IC50 in assay [1] fell in the range of 2 to 10 µM; with A375, 2 to 10 µM; in assay [2], 10 to 20 µM; in assay [3], 2 to 10 µM; in assay [4], 2 to 10 µM.

Take `O=C(/C=C/c1cc2ccccc2s1)c1c(-c2ccccc2)c2cc(Cl)ccc2[nH]c1=O` [Compound 36, 3-(3-Benzo[b]thiophen-2-yl-acryloyl)-6-chloro-4-phenyl-1H-quinolin-2-one]: the IC50 in assay [1] was 10 to 20 µM; with A375 it was 2 to 10 µM; in assay [2] it was 2 to 10 µM; in assay [3] it was 2 to 10 µM; in assay [4], 2 to 10 µM.

Turning to `CCOC(=O)c1cncc(-c2c(C(=O)/C=C/c3ccccn3)c(=O)[nH]c3ccc(Cl)cc23)c1` [Compound 107, Ethyl 5-[3-((2E)-3-(2-pyridyl)prop-2-enoyl)-6-chloro-2-oxo-4-hydroquinolyl]pyridine-3-carboxylate], the IC50 in assay [1] is 10 to 20 µM; with A375, 2 to 10 µM; in assay [2], 10 to 20 µM; in assay [3] it was over 20 µM; in assay [4], 10 to 20 µM.

As for `O=C(/C=C/c1ccoc1)c1c(-c2ccccc2)c2cc(Cl)ccc2[nH]c1=O` [Compound 50, 6-Chloro-3-(3-furan-3-yl-acryloyl)-4-phenyl-1H-quinolin-2-one], the IC50 in assay [1] was 10 to 20 µM; in the assay on A375 it was under 2 µM; in assay [2] it was over 20 µM; in assay [3], 2 to 10 µM; in assay [4], over 20 µM.

Regarding `O=C(/C=C/c1ccccn1)c1c(-c2ccc(Cl)cc2)c2cc(Cl)ccc2[nH]c1=O` [Compound 82, 3-((2E)-3-(2-pyridyl)prop-2-enoyl)-6-chloro-4-(4-chlorophenyl)hydroquinolin-2-one], the IC50 (in assay [1]; in the assay with A375; in assay [2]; in assay [3]; in assay [4]) was 2 to 10 µM each time.

In the case of `COc1cncc(-c2c(C(=O)/C=C/c3ccccn3)c(=O)[nH]c3ccc(Cl)cc23)c1` [Compound 98, 3-((2E)-3-(2-pyridyl)prop-2-enoyl)-6-chloro-4-(5-methoxy(3-pyridyl))hydroquinolin-2-one], the IC50 in assay [1] lay within 10 to 20 µM; with A375 it was 2 to 10 µM; in assay [2], 10 to 20 µM; in assay [3] it was 10 to 20 µM; in assay [4], 10 to 20 µM.

Take `O=C(/C=C/c1ccccc1)c1c(-c2cccnc2)c2cc(Cl)ccc2[nH]c1=O` [Compound 7, 6-Chloro-3-(3-phenyl-acryloyl)-4-pyridin-3-yl-1H-quinolin-2-one]: the IC50 in assay [1] was in the range of 10 to 20 µM; in the assay with A375, 10 to 20 µM; in assay [2] it was 10 to 20 µM; in assay [3] it was 2 to 10 µM; in assay [4], 10 to 20 µM.

On to `O=C(/C=C/c1nc2ccccc2[nH]1)c1c(-c2ccccc2)c2cc(F)ccc2[nH]c1=O` [Compound 20, 3-(3-1H-Benzoimidazol-2-yl-acryoyl)-6-fluoro-4-phenyl-1H-quinolin-2-one], for which the IC50 in assay [1] was over 20 µM; in the assay on A375, under 2 µM; in assay [2], 10 to 20 µM; in assay [3] it was 10 to 20 µM; in assay [4], over 20 µM.

Consider `O=C(/C=C/c1ccccc1)c1c(-c2cccs2)c2cc(Cl)ccc2[nH]c1=O` [Compound 10], for which the IC50 in assay [1] was 2 to 10 µM; with A375 it was over 20 µM; in assay [2], 10 to 20 µM; in assay [3], 2 to 10 µM; in assay [4], 2 to 10 µM.

For `O=C(/C=C/c1cncc(Cl)c1)c1c(-c2ccccc2)c2cc(Cl)ccc2[nH]c1=O` [Compound 115, (E)-6-chloro-3-(3-(5-chloropyridin-3-yl)acryloyl)-4-phenylquinolin-2(1H)-one], the IC50 in assay [1] is 2 to 10 µM; in the assay with A375, under 2 µM; in assay [2] it was 2 to 10 µM; in assay [3] it was 2 to 10 µM; in assay [4], 2 to 10 µM.

For the molecule `O=C(CCc1nc2ccccc2[nH]1)c1c(-c2ccccc2)c2cc(Cl)ccc2[nH]c1=O` [Compound 68, 3-(3-1H-Benzoimidazol-2-yl-propionyl)-6-chloro-4-phenyl-1H-quinolin-2-one], the IC50 (in assay [1]; in the assay with A375; in assay [2]; in assay [3]; in assay [4]) was over 20 µM throughout.

On to `COc1cncc(/C=C/C(=O)c2c(-c3ccccc3)c3cc(Cl)ccc3[nH]c2=O)c1` [Compound 66, 3-[(2E)-3-(5-methoxy(3-pyridyl))prop-2-enoyl]-6-chloro-4-phenylhydroquinolin-2-one], for which the IC50 in assay [1] is 2 to 10 µM; in the assay on A375 it was under 2 µM; in assay [2], 2 to 10 µM; in assay [3], 2 to 10 µM; in assay [4] it was 2 to 10 µM.

For `O=C(/C=C/c1nc2ccccc2n1Cc1ccccc1)c1c(-c2ccccc2)c2cc(Cl)ccc2[nH]c1=O` [Compound 55, 3-[3-(1-Benzyl-1H-benzoimidazol-2-yl)-acryloyl]-6-chloro-4-phenyl-1H-quinolin-2-one], the IC50 (in assay [1]; with A375; in assay [2]; in assay [3]; in assay [4]) was 2 to 10 µM in each case.
